Values belong to the compound of their own block, whether it stands above or below them.
What was measured:
[1] = molecular target: T1, Adenosine receptor A3 (Mus musculus, UniProt Q61618); assay type: cell-based, HEK293
T1 sequence (Q61618 whole entry): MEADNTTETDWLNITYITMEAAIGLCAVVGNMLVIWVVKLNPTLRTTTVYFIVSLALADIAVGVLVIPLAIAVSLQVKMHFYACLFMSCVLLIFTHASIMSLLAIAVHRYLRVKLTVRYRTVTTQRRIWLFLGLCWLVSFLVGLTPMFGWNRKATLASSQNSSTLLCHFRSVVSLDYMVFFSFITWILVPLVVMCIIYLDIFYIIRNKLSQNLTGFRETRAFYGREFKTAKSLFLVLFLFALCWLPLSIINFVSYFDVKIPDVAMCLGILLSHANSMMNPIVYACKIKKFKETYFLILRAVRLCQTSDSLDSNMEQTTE

[2] = molecular target: T2, Adenosine receptor A1 (Homo sapiens, UniProt P30542); experiment: Displacement of [3H] DPCPX from human adenosine A1 receptor expressed in HEK293 cells incubated for 60 mins by radioligand binding assay; assay type: cell-based
T2 sequence (P30542 whole entry): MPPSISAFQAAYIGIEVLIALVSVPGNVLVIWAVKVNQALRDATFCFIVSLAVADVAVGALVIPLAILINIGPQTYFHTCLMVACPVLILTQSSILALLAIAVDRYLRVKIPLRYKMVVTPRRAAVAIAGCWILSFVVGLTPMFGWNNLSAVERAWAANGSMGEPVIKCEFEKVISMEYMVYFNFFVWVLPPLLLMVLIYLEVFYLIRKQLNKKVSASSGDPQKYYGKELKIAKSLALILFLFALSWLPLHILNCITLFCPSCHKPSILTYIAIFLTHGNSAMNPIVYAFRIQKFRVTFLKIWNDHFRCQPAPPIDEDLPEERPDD

[3] = molecular target: T3, Adenosine receptor A2a (Homo sapiens, UniProt P29274); experiment: Displacement of [3H] ZM241385 from human adenosine A2A receptor expressed in HEK293 cells at 10 uM incubated for 60 mins by radioligand binding assay; assay type: cell-based
[4] = molecular target: T4, Adenosine receptor A3 (Homo sapiens, UniProt P0DMS8); assay type: cell-based, HEK293
T4 sequence (P0DMS8 whole entry): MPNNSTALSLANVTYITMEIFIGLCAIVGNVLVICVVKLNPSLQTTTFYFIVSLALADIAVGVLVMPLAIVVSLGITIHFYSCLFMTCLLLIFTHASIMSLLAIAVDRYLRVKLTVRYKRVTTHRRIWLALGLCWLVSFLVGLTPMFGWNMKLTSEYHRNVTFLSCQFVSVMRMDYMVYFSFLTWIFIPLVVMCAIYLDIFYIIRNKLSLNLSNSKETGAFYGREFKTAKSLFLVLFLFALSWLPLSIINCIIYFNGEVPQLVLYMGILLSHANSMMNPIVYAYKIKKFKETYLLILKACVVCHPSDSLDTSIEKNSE

[5] = molecular target: T5, Adenosine receptor A1 (Mus musculus, UniProt Q60612); experiment: Displacement of [3H] DPCPX from mouse adenosine A1 receptor expressed in HEK293 cells incubated for 60 mins by radioligand binding assay; assay type: cell-based
T5 sequence (Q60612 whole entry): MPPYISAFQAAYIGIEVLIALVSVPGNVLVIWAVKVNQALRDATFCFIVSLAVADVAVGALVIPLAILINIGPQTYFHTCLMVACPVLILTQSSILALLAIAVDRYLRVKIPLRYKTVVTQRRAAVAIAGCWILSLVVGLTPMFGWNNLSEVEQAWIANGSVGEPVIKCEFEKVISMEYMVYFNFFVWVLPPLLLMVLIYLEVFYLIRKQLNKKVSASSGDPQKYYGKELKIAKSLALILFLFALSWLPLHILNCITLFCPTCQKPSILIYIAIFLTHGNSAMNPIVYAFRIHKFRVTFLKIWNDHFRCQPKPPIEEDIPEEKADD

[6] = molecular target: Adenosine receptor A2a (Mus musculus) (UniProt Q60613); experiment: Displacement of [3H] ZM241385 from mouse adenosine A2A receptor expressed in HEK293 cells at 10 uM incubated for 60 mins by radioligand binding assay; assay type: cell-based
[7] = molecular target: Adenosine receptor A2b (Rattus norvegicus, UniProt P29276); experiment: Displacement of [3H] DPCPX from rat adenosine A2B receptor expressed in HEK293 cells incubated for 60 mins by radioligand binding assay; assay type: cell-based
[8] = Lipophilicity, logP of compound; assay type: physicochemical; details: octanol/water
[9] = molecular target: Adenosine receptor A2a (Rattus norvegicus, UniProt P30543); experiment: Displacement of [3H] ZM241385 from rat adenosine A2A receptor expressed in HEK293 cells incubated for 60 mins by radioligand binding assay; assay type: cell-based
[10] = molecular target: Adenosine receptor A2b (Mus musculus, UniProt Q60614); experiment: Displacement of [3H] DPCPX from mouse adenosine A2B receptor expressed in HEK293 cells incubated for 60 mins by radioligand binding assay; assay type: cell-based
[11] = molecular target: T6, Adenosine receptor A3 (Rattus norvegicus, UniProt P28647); assay type: cell-based, HEK293
T6 sequence (P28647 whole entry): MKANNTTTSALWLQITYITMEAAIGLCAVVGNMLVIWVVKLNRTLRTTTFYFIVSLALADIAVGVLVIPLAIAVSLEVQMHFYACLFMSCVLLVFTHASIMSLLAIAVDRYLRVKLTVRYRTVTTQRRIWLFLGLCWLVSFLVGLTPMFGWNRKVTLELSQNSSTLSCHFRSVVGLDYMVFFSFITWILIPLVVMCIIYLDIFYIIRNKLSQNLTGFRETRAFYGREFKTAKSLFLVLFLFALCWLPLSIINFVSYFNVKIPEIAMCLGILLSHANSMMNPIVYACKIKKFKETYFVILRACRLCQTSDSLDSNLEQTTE

[12] = molecular target: Adenosine receptor A2b (Homo sapiens, UniProt P29275); experiment: Displacement of [3H] DPCPX from human adenosine A2B receptor expressed in HEK293 cells incubated for 60 mins by radioligand binding assay; assay type: cell-based
[13] = Volume of distribution in Sprague-Dawley rat plasma at 1 mg/kg, iv measured after 8 hrs by LC-MS/MS analysis; assay type: ADME, organism-based
[14] = Half life in Sprague-Dawley rat brain at 1 mg/kg, iv measured after 8 hrs by LC-MS/MS analysis; assay type: ADME, organism-based
[15] = molecular target: T3, Adenosine receptor A2a; experiment: Displacement of [3H] ZM241385 from human adenosine A2A receptor expressed in HEK293 cells incubated for 60 mins by radioligand binding assay; assay type: cell-based
[16] = C0 in Sprague-Dawley rat plasma at 1 mg/kg, iv measured after 8 hrs by LC-MS/MS analysis; assay type: ADME, organism-based
[17] = molecular target: 5-hydroxytryptamine receptor 2C (Homo sapiens, UniProt P28335); experiment: Binding affinity to human 5-HT2C receptor by radioligand binding assay
[18] = Half life in Sprague-Dawley rat plasma at 1 mg/kg, iv measured after 8 hrs by LC-MS/MS analysis; assay type: ADME, organism-based
[19] = Volume of distribution in Sprague-Dawley rat brain at 1 mg/kg, iv measured after 8 hrs by LC-MS/MS analysis; assay type: ADME, organism-based
[20] = Fraction unbound in Sprague-Dawley rat brain assessed as unbound fraction at 1 mg/kg, iv measured after 8 hrs by LC-MS/MS analysis; assay type: ADME, organism-based
[21] = molecular target: 5-hydroxytryptamine receptor 2A (Homo sapiens, UniProt P28223); experiment: Binding affinity to human 5-HT2A receptor by radioligand binding assay
[22] = molecular target: Muscarinic acetylcholine receptor M5 (Homo sapiens, UniProt P08912); experiment: Binding affinity to human M5 receptor by radioligand binding assay
[23] = molecular target: Adenosine receptor A1 (Rattus norvegicus, UniProt P25099); experiment: Displacement of [3H] DPCPX from rat adenosine A1 receptor expressed in HEK293 cells incubated for 60 mins by radioligand binding assay; assay type: cell-based
[24] = molecular target: Adenosine receptor A2a (Mus musculus, UniProt Q60613); experiment: Displacement of [3H] ZM241385 from mouse adenosine A2A receptor expressed in HEK293 cells incubated for 60 mins by radioligand binding assay; assay type: cell-based
[25] = C0 in Sprague-Dawley rat brain at 1 mg/kg, iv measured after 8 hrs by LC-MS/MS analysis; assay type: ADME, organism-based
[26] = Drug concentration in Sprague-Dawley rat brain concentration assessed as average concentration at 1 mg/kg, iv measured after 8 hrs by LC-MS/MS analysis; assay type: ADME, organism-based; details: in vivo
[27] = Fraction unbound in Sprague-Dawley rat plasma assessed as unbound fraction at 1 mg/kg, iv measured after 8 hrs by LC-MS/MS analysis; assay type: ADME, organism-based
[28] = Clearance in Sprague-Dawley rat plasma at 1 mg/kg, iv measured after 8 hrs by LC-MS/MS analysis; assay type: ADME, organism-based
[29] = Drug concentration in Sprague-Dawley rat plasma assessed as average concentration at 1 mg/kg, iv measured after 8 hrs by LC-MS/MS analysis; assay type: ADME, organism-based; details: in vivo
[30] = molecular target: T6, Adenosine receptor A3; experiment: Binding affinity to rat adenosine A3 receptor measured by radioligand binding assay
[31] = molecular target: Adenosine receptor A1 (Mus musculus) (UniProt Q60612); experiment: Displacement of [3H] DPCPX from mouse adenosine A1 receptor expressed in HEK293 cells at 10 uM incubated for 60 mins by radioligand binding assay; assay type: cell-based
[32] = molecular target: T7, Adenosine receptor A1 (Homo sapiens) (UniProt P30542); experiment: Displacement of [3H] DPCPX from human adenosine A1 receptor expressed in HEK293 cells at 10 uM incubated for 60 mins by radioligand binding assay; assay type: cell-based
T7 sequence (whole entry): T2 sequence (P30542 whole entry)

[33] = molecular target: Adenosine receptor A1 (Rattus norvegicus) (UniProt P25099); experiment: Displacement of [3H] DPCPX from rat adenosine A1 receptor expressed in HEK293 cells at 10 uM incubated for 60 mins by radioligand binding assay; assay type: cell-based
[34] = molecular target: Adenosine receptor A2b (Rattus norvegicus) (UniProt P29276); experiment: Displacement of [3H] DPCPX from rat adenosine A2B receptor expressed in HEK293 cells at 10 uM incubated for 60 mins by radioligand binding assay; assay type: cell-based
[35] = molecular target: Adenosine receptor A2b (Mus musculus) (UniProt Q60614); experiment: Displacement of [3H] DPCPX from mouse adenosine A2B receptor expressed in HEK293 cells at 10 uM incubated for 60 mins by radioligand binding assay; assay type: cell-based
[36] = molecular target: Adenosine receptor A2a (Rattus norvegicus) (UniProt P30543); experiment: Displacement of [3H] ZM241385 from rat adenosine A2A receptor expressed in HEK293 cells at 10 uM incubated for 60 mins by radioligand binding assay; assay type: cell-based
[37] = molecular target: Adenosine receptor A2b (Homo sapiens) (UniProt P29275); experiment: Displacement of [3H] DPCPX from human adenosine A2B receptor expressed in HEK293 cells at 10 uM incubated for 60 mins by radioligand binding assay; assay type: cell-based
[38] = molecular target: D(4) dopamine receptor (Homo sapiens, UniProt P21917); experiment: Binding affinity to human D4 receptor by radioligand binding assay
[39] = molecular target: Sigma intracellular receptor 2 (Homo sapiens, UniProt Q5BJF2); experiment: Binding affinity to human sigma2 receptor by radioligand binding assay
[40] = molecular target: Translocator protein (Homo sapiens, UniProt P30536); experiment: Binding affinity to human TSPO receptor by radioligand binding assay
[41] = molecular target: D(3) dopamine receptor (Homo sapiens, UniProt P35462); experiment: Binding affinity to human D3 receptor by radioligand binding assay

T3 sequence (P29274 whole entry): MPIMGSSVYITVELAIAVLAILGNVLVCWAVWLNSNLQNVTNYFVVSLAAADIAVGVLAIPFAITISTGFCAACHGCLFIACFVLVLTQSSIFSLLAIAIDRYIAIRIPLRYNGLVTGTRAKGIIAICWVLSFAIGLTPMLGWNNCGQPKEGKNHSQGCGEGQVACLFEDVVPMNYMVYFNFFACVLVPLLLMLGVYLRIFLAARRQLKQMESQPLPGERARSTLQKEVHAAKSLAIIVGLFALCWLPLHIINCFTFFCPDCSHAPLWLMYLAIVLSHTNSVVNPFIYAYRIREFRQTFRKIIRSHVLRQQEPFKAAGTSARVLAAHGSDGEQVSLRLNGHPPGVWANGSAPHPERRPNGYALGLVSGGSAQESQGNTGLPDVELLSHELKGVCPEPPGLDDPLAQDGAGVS
Adenosine receptor A2a (Mus musculus), sequence (Q60613 whole entry): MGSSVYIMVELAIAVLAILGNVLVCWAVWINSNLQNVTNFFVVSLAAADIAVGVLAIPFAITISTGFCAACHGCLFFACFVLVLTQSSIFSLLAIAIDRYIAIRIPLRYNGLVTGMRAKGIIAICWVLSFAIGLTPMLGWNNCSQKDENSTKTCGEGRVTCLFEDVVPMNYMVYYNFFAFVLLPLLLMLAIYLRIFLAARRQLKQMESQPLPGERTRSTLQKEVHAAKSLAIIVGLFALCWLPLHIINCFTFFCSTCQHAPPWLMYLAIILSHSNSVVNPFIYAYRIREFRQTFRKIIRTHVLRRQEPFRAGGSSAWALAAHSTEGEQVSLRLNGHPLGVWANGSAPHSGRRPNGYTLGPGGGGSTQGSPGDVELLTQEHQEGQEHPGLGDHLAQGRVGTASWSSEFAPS
Adenosine receptor A2a (Rattus norvegicus, UniProt P30543), sequence (P30543 whole entry): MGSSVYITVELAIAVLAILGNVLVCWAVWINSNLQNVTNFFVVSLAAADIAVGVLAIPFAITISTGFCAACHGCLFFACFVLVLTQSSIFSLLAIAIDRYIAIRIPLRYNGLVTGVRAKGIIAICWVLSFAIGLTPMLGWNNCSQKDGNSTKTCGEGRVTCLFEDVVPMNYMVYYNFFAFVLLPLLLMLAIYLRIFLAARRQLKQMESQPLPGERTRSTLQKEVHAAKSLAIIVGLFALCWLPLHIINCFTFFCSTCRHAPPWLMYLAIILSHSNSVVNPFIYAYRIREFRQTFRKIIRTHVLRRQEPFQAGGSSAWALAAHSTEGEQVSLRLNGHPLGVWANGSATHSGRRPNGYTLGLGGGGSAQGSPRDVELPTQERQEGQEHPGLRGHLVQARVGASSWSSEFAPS
Adenosine receptor A2a (Rattus norvegicus), sequence (P30543 whole entry): as above
5-hydroxytryptamine receptor 2A, sequence (P28223 whole entry): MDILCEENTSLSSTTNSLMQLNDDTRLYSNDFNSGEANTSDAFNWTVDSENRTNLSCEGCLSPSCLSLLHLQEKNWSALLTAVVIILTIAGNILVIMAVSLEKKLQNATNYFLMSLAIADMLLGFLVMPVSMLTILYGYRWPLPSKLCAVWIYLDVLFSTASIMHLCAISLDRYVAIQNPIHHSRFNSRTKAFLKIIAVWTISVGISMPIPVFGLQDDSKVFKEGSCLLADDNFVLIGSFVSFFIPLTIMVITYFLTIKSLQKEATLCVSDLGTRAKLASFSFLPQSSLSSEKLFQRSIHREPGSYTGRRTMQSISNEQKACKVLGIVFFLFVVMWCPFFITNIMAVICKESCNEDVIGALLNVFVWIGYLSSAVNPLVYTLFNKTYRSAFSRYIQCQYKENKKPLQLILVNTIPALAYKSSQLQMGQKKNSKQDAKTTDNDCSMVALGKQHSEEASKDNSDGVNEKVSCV
Sigma intracellular receptor 2, sequence (Q5BJF2 whole entry): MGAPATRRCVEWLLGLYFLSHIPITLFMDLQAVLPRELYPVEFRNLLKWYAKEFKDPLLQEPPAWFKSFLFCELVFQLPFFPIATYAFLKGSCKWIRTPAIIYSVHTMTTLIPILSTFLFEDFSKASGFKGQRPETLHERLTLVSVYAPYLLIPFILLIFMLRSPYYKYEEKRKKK
D(4) dopamine receptor, sequence (P21917 whole entry): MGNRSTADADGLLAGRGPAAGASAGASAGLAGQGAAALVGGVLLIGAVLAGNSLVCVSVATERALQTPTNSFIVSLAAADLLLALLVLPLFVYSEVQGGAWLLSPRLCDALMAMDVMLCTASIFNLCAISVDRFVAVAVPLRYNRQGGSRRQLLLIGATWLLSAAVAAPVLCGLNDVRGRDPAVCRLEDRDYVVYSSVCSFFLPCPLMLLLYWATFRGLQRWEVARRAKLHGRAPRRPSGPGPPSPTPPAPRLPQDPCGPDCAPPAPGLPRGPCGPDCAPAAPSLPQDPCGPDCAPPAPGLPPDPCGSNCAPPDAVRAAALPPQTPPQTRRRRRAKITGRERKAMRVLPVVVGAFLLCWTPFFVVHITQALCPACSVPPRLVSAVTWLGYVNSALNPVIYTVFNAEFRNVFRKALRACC
Adenosine receptor A2b (Homo sapiens), sequence (P29275 whole entry): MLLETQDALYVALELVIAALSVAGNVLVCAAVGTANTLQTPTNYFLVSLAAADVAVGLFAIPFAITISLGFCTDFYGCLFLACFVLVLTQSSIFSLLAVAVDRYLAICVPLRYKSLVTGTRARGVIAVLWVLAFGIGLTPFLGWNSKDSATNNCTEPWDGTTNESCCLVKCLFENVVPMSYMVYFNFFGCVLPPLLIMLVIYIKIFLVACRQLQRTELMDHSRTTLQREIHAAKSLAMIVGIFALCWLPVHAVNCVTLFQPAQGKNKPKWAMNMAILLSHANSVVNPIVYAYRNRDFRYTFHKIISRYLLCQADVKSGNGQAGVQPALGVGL
Adenosine receptor A2b (Homo sapiens, UniProt P29275), sequence (P29275 whole entry): as above
Adenosine receptor A2b (Rattus norvegicus, UniProt P29276), sequence (P29276 whole entry): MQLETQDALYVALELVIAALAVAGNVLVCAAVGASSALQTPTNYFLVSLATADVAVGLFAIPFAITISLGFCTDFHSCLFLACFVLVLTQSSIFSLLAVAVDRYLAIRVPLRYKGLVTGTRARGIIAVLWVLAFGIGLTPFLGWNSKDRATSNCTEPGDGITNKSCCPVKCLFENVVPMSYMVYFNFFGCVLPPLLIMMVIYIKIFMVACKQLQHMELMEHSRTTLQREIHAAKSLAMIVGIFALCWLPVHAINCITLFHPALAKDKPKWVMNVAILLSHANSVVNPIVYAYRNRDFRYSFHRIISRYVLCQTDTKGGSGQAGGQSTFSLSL
Adenosine receptor A2b (Rattus norvegicus), sequence (P29276 whole entry): as above
Adenosine receptor A1 (Rattus norvegicus), sequence (P25099 whole entry): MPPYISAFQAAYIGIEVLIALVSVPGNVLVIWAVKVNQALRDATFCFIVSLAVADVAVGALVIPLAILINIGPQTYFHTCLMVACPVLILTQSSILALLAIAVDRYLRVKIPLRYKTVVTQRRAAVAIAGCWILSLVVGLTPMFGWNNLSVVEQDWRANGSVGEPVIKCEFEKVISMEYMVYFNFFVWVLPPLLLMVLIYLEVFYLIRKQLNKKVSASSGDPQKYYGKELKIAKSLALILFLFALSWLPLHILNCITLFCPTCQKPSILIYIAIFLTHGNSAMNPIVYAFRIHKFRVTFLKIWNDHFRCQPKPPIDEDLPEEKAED
Adenosine receptor A1 (Rattus norvegicus, UniProt P25099), sequence (P25099 whole entry): as above
Translocator protein, sequence (P30536 whole entry): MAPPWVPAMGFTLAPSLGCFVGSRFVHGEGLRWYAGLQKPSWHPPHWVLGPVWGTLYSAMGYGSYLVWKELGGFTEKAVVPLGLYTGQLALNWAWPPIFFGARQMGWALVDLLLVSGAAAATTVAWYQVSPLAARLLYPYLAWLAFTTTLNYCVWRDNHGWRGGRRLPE

Compound: CNC(=O)[C@@]12C[C@@H]1[C@@H](n1cnc3c(NCc4cccc(I)c4)nc(Cl)nc31)[C@H](O)[C@@H]2O
Kd [30]: 0.17 nM

Compound: CCCOC(=O)c1c(-c2ccccc2)nc(CC)c(C(=O)SCC)c1CCC
Ki [1]: 349 nM | inhibition [31]: 27.4% | Ki [11]: 216 nM | inhibition [3]: 16.4% | inhibition [32]: 35.4% | inhibition [33]: 25.5% | Ki [4]: 43.9 nM | inhibition [34]: 38.8% | inhibition [35]: 20.2% | inhibition [36]: 7.4% | inhibition [37]: 34.5% | inhibition [6]: 25.1%

Compound: Cc1cc(C#Cc2ccc(Cl)s2)cc(-c2nc(NC(=O)c3cccnc3)sc2-c2ccncc2)c1
inhibition [3]: -0.5% | inhibition [32]: 21% | Ki [4]: 80.7 nM

Continued, values first:

Ki [1]: 22.3 nM | Ki [2]: 1450 nM | inhibition [3]: -7.3% | Ki [4]: 6.34 nM | Ki [5]: 252 nM | inhibition [6]: 29%
Compound: Cc1cc(Br)cc(-c2nc(NC(=O)c3cccnc3)sc2-c2ccncc2)c1

Ki [7]: 163 nM | logP [8]: 4.68 | Ki [9]: 1150 nM | Ki [10]: 189 nM | Ki [1]: 9.61 nM | Ki [2]: 162 nM | Ki [11]: 8.53 nM | Ki [12]: 230 nM | Vd [13]: 1.8 L/kg | half-life [14]: 42 min | Ki [15]: 121 nM | C0 at 8 h [16]: 628 ng/mL | Ki [17]: 790 nM | half-life [18]: 48 min | Vd [19]: 1.9 L/kg | Ki [5]: 411 nM | fraction unbound at 8 h [20]: 0.03 | Ki [21]: 960 nM | Ki [22]: 3.7 µM | Ki [23]: 333 nM | Ki [24]: 830 nM | C0 at 8 h [25]: 760 ng/mL | Cave [26]: 95 ng/mL | fraction unbound at 8 h [27]: 0.03 | clearance [28]: 40 mL/min/kg | Cave [29]: 52 ng/mL
Compound: Cc1cc(C)cc(-c2nc(NC(=O)c3cccnc3)sc2-c2ccncc2)c1

Ki [38]: 1240 nM | Ki [1]: 12.4 nM | Ki [2]: 8770 nM | Ki [39]: 3.69 µM | Ki [40]: 1330 nM | Ki [4]: 6.12 nM | Ki [5]: 2640 nM | Ki [41]: 340 nM | inhibition [6]: 7.4%
Compound: Cc1cc(I)cc(-c2nc(NC(=O)c3cccnc3)sc2-c2ccncc2)c1
